Laboratory results reported in patent US20250025440A1, “COMPOSITIONS AND METHODS FOR MANAGEMENT OF HUMAN PAPILLOMA VIRUS-ASSOCIATED CANCERS” (LOMA LINDA UNIVERSITY, priority 2021, published 2025).

How the values were obtained:
[1] = test system: HPV- cell lines (SCC19, SCC84); test: Caspase 3/7 activity Glo assay; assay type: cell-based; settings: 0.75 μM, 24 hours
Protocol: (§1) These findings were then confirmed by conducting a Caspase 3/7 activity Glo assay, which is a surrogate for apoptotic induction. Three HPV^+ cell lines (SCC090, SCC104, SiHa) and two HPV^− cell lines (SCC19, SCC84) were assessed for activity of caspases 3 and 7, and thus for apoptosis activity. […] FIG. 8B is a graphical representation of the Caspase 3/7 activity of gambogic acid in various HPV+ and HPV− cell lines. These cell lines were seeded in 96 well plates and treated with 0.75 uM GA-OH. Caspase 3/7 activity was measured after 24 hours. HPV^+ cell lines show high levels of Caspase 3/7 activity. […] FIG. 10 is a graphical representation of the cell viability as measured by MTT, when three HPV^+ cell lines (SCC090, SCC104, SiHa) and two HPV^− cell lines (SCC19, SCC84) were treated with gambogic acid.
(§2) Cells were seeded into white walled 96-well plates at 2×10^4 cells per well in 100 μL media and incubated overnight. GA-OH (0.75 μM) and vehicle were then added and incubated at 37° C. for 24 hr. Caspase 3/7 activity was measured using the Caspase 3/7 Glo kit (Promega, Fitchburg, WI, USA) following the manufacturer's instructions. Briefly, room temperature-equilibrated Caspase-Glo reagent was added (Promega) to each well. […] After a 2-hr incubation, luminescence was measured using a plate-reading fluorimeter (Flx800, Bio-Tek Instrument Co., Winooski, VT, USA). […]

[2] = test system: HPV+ cell lines (SCC090, SCC104, SiHa); test: Caspase 3/7 activity Glo assay; assay type: cell-based; settings: 0.75 μM, 24 hours
Protocol: as §1, §2

SCC47 (HPV+) = test: Cell cycle analysis after irradiation (PI flow cytometry); assay type: cell-based; settings: SCC47, radiation (4Gy) followed by GA-OH, 24 hours
Protocol: Cells were treated with radiation (4Gy) followed by GA-OH before cell cycle analysis was performed using propidium iodide (PI) flow cytometry assay after 24 hours. FIGS. 15A-15B are graphical representations of the cell cycle analysis of SCC47 and SCC19 cell lines after irradiation and followed by treatment with control or with GA-OH, as measured by flow cytometry assays after 24 hours. In both cell lines, G2-M is the most affected stage of cell cycle and there is increase in G2-M arrested cells. The HPV^+ cell line—SCC47 has a higher proportion of cells that are still arrested in G2-M phase after 24 hours compared to the HPV^− cell line—SCC19. FIGS. 16A-16B are graphical representations of the fraction of G2-M arrested cells in SCC47 and SCC19 lines after irradiation and followed by treatment with control or with GA-OH, as measured by flow cytometry assays after 24 hours. […]
Kinetics of G2-M arrest when SCC47 and SCC19 are irradiated with or without GA-OH. […] FIGS. 17A-17B are graphical representations of the kinetics of G2-M arrest when SCC47 and SCC19 are irradiated and followed by treatment with control or with GA-OH, as measured by flow cytometry assays after 24 hours. […] Apoptosis analysis of SCC47 and SCC19 was performed after irradiation and followed by treatment with control or with GA-OH, as measured by flow cytometry assays after 24 hours. […]

[3] = target: T1, full-length HPV E6 binding to human Caspase 8 (Human papillomavirus type 16, UniProt P03126); settings: SAR analogs
T1 construct: made in house; host or cells: E. coli
T1 sequence (P03126 whole entry): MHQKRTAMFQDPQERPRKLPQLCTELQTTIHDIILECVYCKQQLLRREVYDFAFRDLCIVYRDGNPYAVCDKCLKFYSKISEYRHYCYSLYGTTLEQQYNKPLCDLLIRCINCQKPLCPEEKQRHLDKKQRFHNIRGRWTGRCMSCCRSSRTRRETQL
Protocol: Three structurally diverse libraries (Prestwick library, Microsource Spectrum library and an in-house collection at Kansas University; see Table 1) were screened for the ability of compounds to inhibit the binding of full-length HPV E6 to human Caspase 8 using a previously optimized AlphaScreen™ protocol.
The compounds were diluted to a working concentration in DMSO and screened at a single-point final concentration of 10 μM with no replicates. Briefly, 75 nL of each compound was transferred and added to wells of the destination 384-well plate using the Echo dispenser to 4 μL of blocking solution. 4 μL of 800 nM GST-E6 and 4 μL of His6-Caspase 8 were added and pre-incubated at room temperature for 60 minutes. 8 μL of the donor and acceptor bead mixture (final concentration of 20 μg/ml) was then added. The plates were sealed and incubated for 4 hours at room temperature before the plates were read using the Envision™ Multi-Label plate reader (Perkin Elmer Inc.). […] A 10-point serial dilution of these compounds was done for dose-dependency reconfirmation. Dose response inhibition curves were constructed and IC50 calculated using GraphPad Prism using four parameter non-linear regression analysis.
The first counter-screen assay was based using the GST-His6 fusion peptide as the E6-binding partner instead of GST-E6-His6-Caspase 8. Hit candidate compounds from the primary screen were prepared using a 6-point serial dilution. Using an Echo dispenser, compounds were transferred to plates containing 4 μL of blocking buffer. 8 μL of 5 nM GST-His6 peptide substrate was then added. The mixture was pre-incubated at room temperature for 60 minutes. Glutathione donor and nickel chelate acceptor beads (final concentration 20 μg/mL) were added and incubated for another 60 minutes at room temperature. Dose-dependency of the compounds using GST-E6-His6-Caspase 8 was performed in parallel using the same protocol as in the primary screen. The signals were then read using the Envision™ plate reader.
Using the SciFinder and Zinc15 databases, several gambogic acid structural analogs were identified and selected. The 8 analogs were obtained as follow: gambogenic amide (Enzo Life Sciences), gambogenic acid (Selleckchem), morellic acid (Aobious), 30-hydroxy gambogic acid (Quality Phytochemicals, LLC), acetyl gambogic acid (Microsource), and gambogin, neogambogic acid and isomorellinol (MolPort Natural Products). Additional gambogic acid was purchased from Tocris. The interactions of the analogues with E6-caspase 8 was tested using AlphaScreen™ technology using the same protocol as with the primary screen, and were compared to the parent compound. The effect on cell viability was also similarly done in HPV^+ and HPV^− cell lines via the MTT assay (see below) and potency was determined using GraphPad IC50 curve fitting.

30-hydroxygambogic acid [GA-OH]
Caspase 3/7 activity (apoptosis induction) [1]: little to no apoptosis activity
Caspase 3/7 activity (apoptosis induction) [2]: Significant apoptosis induction
G2-M arrest (SCC47 (HPV+)): increased arrest at 24 hours as compared to radiation alone
inhibition of E6-caspase 8 binding relative to GA [3]: more effectively inhibited E6 binding to caspase 8 than any of the other analogs or the parent compound
